For data set [1], the system named is HCT-116 cells. Put plainly: MTS cytotoxicity assay, HCT-116. The conditions noted are these: for IC50: read-out: IC50 (μM) HCT-116; for selectivity: ratio of cytotoxicity against 293T cells over cytotoxicity against HCT-116 cells. A general note: Tetrazolium assays rely on reduction of a dye to a coloured formazan, in cell work by metabolically active cells.
Description: (§3) HCT-116 cells were cultured in McCoy's 5a Modified Medium (Gibco, USA). […] Both media contain 10% fetal bovine serum (Gibco, USA) and 1% penicillin–streptomycin (Gibco, USA). Cells were maintained in incubator (Thermo Fisher, USA) supplied with 5% CO2 at 37°C. Only cells in logarithmic phase were used in all following experiments.
(§4) In brief, cells were seeded into 96-well plate (Corning, USA) with a density of 3000 cells/well for 24 h, and then treated with tested compounds at various concentrations for 72 h.
The test system of the next data set is 293T cells. Kind of data set: MTS cytotoxicity assay, 293T (model of normal cells). The conditions noted are these: read-out: IC50 (μM) 293T.
Data set [2] relates to HCT-116 cells. Kind of data set: TUNEL assay. It counts as cell-based, human. The conditions noted are these: 5 µM, 72 h. The procedure: (§1) Next, the type of cell death induced by compound 8d was investigated. […] Annexin V/PI staining assay were carried out to analyse the apoptotic rate of HCT-116 cells.
TdT-UTP nick end-labelling (TUNEL) assay was used to detect the apoptotic cells by in situ cell death detection kit (Roche, Germany) according to the manufacturer's instruction. Briefly, HCT-116 cells were seeded on coverslips and cultured overnight, following treatment with compound 8d (5 µM) for 72 h, then fixed with 4% paraformaldehyde for 30 min and permeabilized with 0.1% Triton X-100 for 2 min on ice. TUNEL reaction mixture was applied to the cells in an atmosphere for 1 h at 37°C in the dark, following with converter-POD and DAB substrate treatment. Samples were detected by a microscope (Olympus, Japan).

Data set [3] deals with HCT-116 cells. Put plainly: Live cell imaging of confluence area (Incucyte). In kind it is cell-based, human. The procedure:
(§2) Thus, it was further studied to understand its underlying antiproliferation mechanism. The confluence areas of HCT-116 cells treated with various concentrations of compound 8d were detected by a live cell analysis imaging system.
Cells were seeded into 24-well plate (1 × 10^4 cells well^−1) for 24 h. Different concentrations of compound 8d were added to treat cells. Time-lapse photography of cells was recorded by Incucyte system. The confluences relative to total well area were calculated using a module of the cell confluence area analysing.

The test system of data set [4] is HCT-116 cells. Kind of data set: Colony formation assay. In kind it is cell-based, human. The conditions noted are these: pre-treatment 24 h with various concentrations, 9 days culture after withdrawal. On the procedure:
as §2
HCT-116 cells were seeded in 6-well plates at a density of 300 cells per well and cultured overnight, and then treated with various concentrations of compound 8d for 24 h. Cells were continuously cultured for 9 days after drug withdrawal. Finally, 1% crystal violet was used to stain cells after fixing with 4% paraformaldehyde, and the visible colonies were recorded by the microscope and counted manually using imageJ.

Data set [5] concerns HCT-116 cells. Kind of data set: Annexin V/PI double staining, flow cytometry. It counts as cell-based, human. The conditions noted are these: 2.5 and 5 µM. On the procedure: as §1
Cells were seeded in 6-well plates with a density of 5 × 10^5 cells per well and then treated with various concentrations of compound 8d (0 µM, 2.5 µM and 5 µM) for 48 h. Cells were collected and stained with annexin V and PI for 20 min, and then detected by flow cytometer (BD, USA) to analyse the apoptotic cell distribution. Living cells (annexin V^−/PI^−), early apoptotic cells (annexin V^+/PI^−), late apoptotic cells (annexin V^+/PI^+) and necrotic cells (annexin V^−/PI^+) were calculated in the Cell Quest software (BD, USA).
(Flow cytometry measures light scatter and fluorescence of single cells or particles in a stream.)

Data set [6] concerns HCT-116 cells. Put plainly: Hoechst 33258 staining. In kind it is cell-based, human. The conditions noted are these: 5 µM, 48 or 72 h. The procedure: as §1
HCT-116 cells were seeded in coverslips for 24 h, and then compound 8d was incubated at a concentration of 5 µM for 48 or 72 h. Cells were incubated with Hoechst 33258 (Sigma, USA) in the dark at room temperature for 30 min after being fixed with 4% paraformaldehyde. The nuclear morphology of apoptosis was observed by fluorescence microscope (Olympus, Japan).

Data set [7] concerns HCT-116 cells. Put plainly: Annexin V staining in living cells. It counts as cell-based, human. The conditions noted are these: 5 µM, 72 h. On the procedure:
as §1
Cells that seed on coverslips were treated with compound 8d (5 µM) for 72 h. Annexin V-FITC was used to target exposed phosphatidylserine which is a marker of early apoptosis. The nucleus of living cells was labelled by Hoechst 33258. The cells were observed by fluorescence microscope (Olympus, Japan).

The mark [8] stands for this setting: MTS assay, 72 h treatment, mean ± s.d.

Structures are written as SMILES. Read-outs that look alike come from different tables or passages of the source.

Description for 293T cells: as §3, §4

What is called IC50 is the concentration that inhibits the measured activity by half. Turning to `CC(=O)OC[C@H]1OC(OC(C)=O)[C@H](n2cc(COCc3ccc(Br)cc3)nn2)[C@@H](OC(C)=O)[C@@H]1OC(C)=O` (stereo partly drawn) [8 g, 1-(1,3,4,6-Tetra-O-acetyl-D-glucopyranosyl)-4-(4-bromobenzene)hydryloxymethyl-[1,2,3]-triazole], the IC50 in the data set with HCT-116 cells [1] (Homo sapiens, HCT-116, 72 h) stood at 4.55 ± 0.23 µM; in the data set on 293T cells (Homo sapiens, HEK-293T, 72 h) it was 11.7 ± 0.16 µM. Besides, the selectivity in the data set on HCT-116 cells [1] is 2.56.
Taken in the same sequence, the figures for `CC(=O)OC[C@H]1OC(OC(C)=O)[C@H](n2cc(COCc3ccc(C(F)(F)F)cc3)nn2)[C@@H](OC(C)=O)[C@@H]1OC(C)=O` (stereo partly drawn) [8 h, 1-(1,3,4,6-Tetra-O-acetyl-D-glucopyranosyl)-4-(4-trifluoromethylbenzene)hydryloxymethyl-[1,2,3]-triazole] were 14.3 ± 2.18 µM, 6.09 ± 0.42 µM and 0.42.
For the compound `CC(=O)OC[C@H]1OC(OC(C)=O)[C@H](N)[C@@H](OC(C)=O)[C@@H]1OC(C)=O` (stereo partly drawn) [AOAG, reference compound], the IC50 in the data set on HCT-116 cells [1] (setting [8]) and with 293T cells (setting [8]) was more than 200 µM in each case.
`CC(=O)OC[C@H]1OC(OC(C)=O)[C@H](N=[N+]=[N-])[C@@H](OC(C)=O)[C@@H]1OC(C)=O` (stereo partly drawn) [Compound 4, 1,3,4,6-Tetra-O-acetyl-2-azido-2-deoxy-D-glucose, reference compound]: the IC50 in the data set on HCT-116 cells [1] (Homo sapiens, HCT-116, 72 h) is 97.5 ± 1.58 µM; in the data set with 293T cells (Homo sapiens, HEK-293T, 72 h) it was 46.9 ± 2.93 µM. In addition, the selectivity in the data set on HCT-116 cells [1] is 0.48.
In the case of `O=c1[nH]cc(F)c(=O)[nH]1` [Compound 5-FU, 5-Fluorouracil, reference compound], the 50% inhibitory concentration (IC50) with HCT-116 cells [1] (Homo sapiens, HCT-116, 72 h) was 3.62 ± 1.22 µM; with 293T cells (Homo sapiens, HEK-293T, 72 h), 9.13 ± 1.63 µM. In addition, in the data set on HCT-116 cells [1], the selectivity is 2.52.
With `OCc1ccccc1` [Compound 6b, reference compound], the half-inhibitory concentration (IC50) is more than 200 µM in the data set with HCT-116 cells [1] (Homo sapiens, HCT-116, 72 h) and more than 200 µM in the data set on 293T cells (Homo sapiens, HEK-293T, 72 h).
With `CC(=O)OC[C@H]1OC(OC(C)=O)[C@H](n2cc(CO)nn2)[C@@H](OC(C)=O)[C@@H]1OC(C)=O` (stereo partly drawn) [Compound 8a, 1-(1,3,4,6-Tetra-O-acetyl-D-glucopyranosyl)-4-hydroxymethyl-[1,2,3]-triazole], the concentration for half-maximal inhibition (IC50) in the data set with HCT-116 cells [1] (Homo sapiens, HCT-116, 72 h) was more than 50 µM; with 293T cells (Homo sapiens, HEK-293T, 72 h), more than 50 µM. Besides, the “cytotoxicity / antiproliferation activity towards HCT-116 (in words)” value in the data set on HCT-116 cells [1] (MTS assay) is “fairly weak”.
With `CC(=O)OC[C@H]1OC(OC(C)=O)[C@H](n2cc(COCc3ccc(C)cc3)nn2)[C@@H](OC(C)=O)[C@@H]1OC(C)=O` (stereo partly drawn) [Compound 8c, 1-(1,3,4,6-Tetra-O-acetyl-D-glucopyranosyl)-4-(4-methylbenzene)hydryloxymethyl-[1,2,3]-triazole], the concentration for half-maximal inhibition (IC50) in the data set with HCT-116 cells [1] (Homo sapiens, HCT-116, 72 h) came out at 6.4 ± 0.2 µM; in the data set with 293T cells (Homo sapiens, HEK-293T, 72 h) it was 19.57 ± 0.13 µM. Besides, the selectivity in the data set with HCT-116 cells [1] is given as 3.06.
On to `COc1ccc(COCc2cn([C@H]3C(OC(C)=O)O[C@H](COC(C)=O)[C@@H](OC(C)=O)[C@@H]3OC(C)=O)nn2)cc1` (stereo partly drawn) [Compound 8d, 1-(1,3,4,6-Tetra-O-acetyl-D-glucopyranosyl)-4-(4-methoxybenzene)hydryloxymethyl-[1,2,3]-triazole], for which, in the data set on HCT-116 cells [2], the “DNA fragmentation, TUNEL assay” value is given as “DNA fragmentation emerged”. In addition, the “proliferation of HCT-116 cells (confluence area)” value in the data set with HCT-116 cells [3] (10 µM, for at least 72 h) was “completely inhibited”. In addition, in the data set with HCT-116 cells [3] (various concentrations), the “proliferation of HCT-116 cells (confluence area), dose dependence” value is given as “dose-dependently inhibited the proliferation”. Moreover, the “colony formation of HCT-116” value with HCT-116 cells [4] is recorded as “inhibited the colony formation of HCT-116 by a dose-dependent manner”. The IC50 in the data set with HCT-116 cells [1] (Homo sapiens, HCT-116, 72 h) worked out at 2.88 ± 0.32 µM; with 293T cells (Homo sapiens, HEK-293T, 72 h), 31.35 ± 0.1 µM. In addition, the “cytotoxicity / antiproliferation activity towards HCT-116 (in words)” value in the data set with HCT-116 cells [1] (MTS assay) was “comparable to 5-FU”. Further, in the data set with HCT-116 cells [1], the selectivity amounted to 10.89. Further, in the data set with HCT-116 cells [5], the “induction of apoptosis, Annexin V/PI assay (in words)” value is “dose-dependently induced early apoptosis and late apoptosis”. Also, the “apoptotic DNA fragmentation, Hoechst 33258 staining” value in the data set with HCT-116 cells [6] is given as “Apoptotic DNA fragmentation”. Moreover, the “Annexin V-FITC staining on cellular membranes of living cells” value in the data set with HCT-116 cells [7] was “Annexin-V-positive staining emerged on cellular membranes”.
As to `CC(=O)OC[C@H]1OC(OC(C)=O)[C@H](n2cc(COCc3ccc(F)cc3)nn2)[C@@H](OC(C)=O)[C@@H]1OC(C)=O` (stereo partly drawn) [Compound 8e, 1-(1,3,4,6-Tetra-O-acetyl-D-glucopyranosyl)-4-(4-fluorobenzene)hydryloxymethyl-[1,2,3]-triazole], the half-inhibitory concentration (IC50) came out at 4.17 ± 0.06 µM with HCT-116 cells [1] (Homo sapiens, HCT-116, 72 h) and 8.1 ± 0.08 µM in the data set on 293T cells (Homo sapiens, HEK-293T, 72 h). The selectivity in the data set on HCT-116 cells [1] is recorded as 1.94.
Taken in the same sequence, the figures for `CC(=O)OC[C@H]1OC(OC(C)=O)[C@H](n2cc(COCc3ccc(Cl)cc3)nn2)[C@@H](OC(C)=O)[C@@H]1OC(C)=O` (stereo partly drawn) [Compound 8f, 1-(1,3,4,6-Tetra-O-acetyl-D-glucopyranosyl)-4-(4-chlorobenzene)hydryloxymethyl-[1,2,3]-triazole] were 7.04 ± 0.06 µM, 22.41 ± 0.05 µM and 3.18.
On the same counts, the results for `CC(=O)OC[C@H]1OC(OC(C)=O)[C@H](n2cc(COCc3ccc([N+](=O)[O-])cc3)nn2)[C@@H](OC(C)=O)[C@@H]1OC(C)=O` (stereo partly drawn) [Compound 8i, 1-(1,3,4,6-Tetra-O-acetyl-D-glucopyranosyl)-4-(4-nitrobenzene)hydryloxymethyl-[1,2,3]-triazole] are 17.3 ± 3.86 µM, 8 ± 0.77 µM and 0.46.

Source of the values: paper PMC8074679, “Synthesis and pharmacological characterization of glucopyranosyl-conjugated benzyl derivatives as novel selective cytotoxic agents against colon cancer” (Royal Society Open Science, 2021).
